Structures can show the parent of a compound that is named as a salt. Where two headings read alike, the source gives them in different places.
Tests used:
[1] = tested on: secretion of hydrochloric acid in the stomach (Shay ulcers); assay: Antisecretory activity - Shay ulcers (pylorus-ligated rat); format: in vivo; conditions: for Emax: Rattus norvegicus, α=1 represents 100% inhibition of gastric acid hypersecretion, read-out: α (approximate value of intrinsic activity); for Emax / ED50: 2 h; for ED50: rat, pylorus ligation, intraduodenal or intravenous; for PR (potency ratio in comparison with Omeprazole): ratio of mean ED50 on the 3 parameters of test compound to mean ED50 of omeprazole
Protocol: Antisecretory activity--Shay ulcers The gastric secretory inhibitory activity of the compounds of general formula (I) was determined in case of hypersecretion induced in the rat by ligation of gastroduodenal junction according to the procedure described by Shay (Shay H. et al, Gasgroenterology 5, 43-61, 1945). […] Thereafter, they were fasted for 24 hours, with water ad libitum, which period was sufficient to assure a good gastric emptying, then laparectomized under light ether anesthesia, so as to allow to effect a pylorus ligation as closer as possible to the gastroduodenal junction. Two hours after the ligation, the animals were killed by means of an ether excess and stomaches were removed. Gastric contents were recovered, after filtration through a gauze, and placed in graduated test-tubes and centrifuged at 3000×g for 15 minutes. The following parameters were evaluated on the surnatant: volume (ml); pH; free acidity by conversion of pH into H^+ μEq by means of Moore table (Ann. New York Acad. Sci. 1967, 866-874); titrable acidity, by titration of an amount with 0.02N NaOH, using phenolphtalein as the indicator. […] The results were expressed as percent inhibition of hypersecretion induced by pylorus ligation in the control rats. The obtained results are reported in table 3 as: ED50 (μmol/kg) calculated on the basis of the equation of the linear tract of does-effect curves obtained with the test compounds on volume, free and titrable acidities; […]

[2] = tested on: secretion of hydrochloric acid in the stomach; assay: Lumen-perfused rat stomach in situ (histamine-induced hypersecretion); format: in vivo; conditions: for ED50: histamine 35 mcg/kg/min, 3 hours; for ED50 / α (intrinsic activity): intraduodenal; for α (intrinsic activity): histamine; for PR = potency ratio: in comparison with omeprazole
Protocol: Lumen-perfused rat stomach in situ The experiments were done according to Ghosh M. N. and Schild H. O. (Br. J. Pharmacol. 13, 54-61, 1958). […] After a midline abdominal incision, a PVC tube was inserted into the stomach via the esophagus and the stomach was perfused with saline (37° C.) at a rate of 1 ml/min. A second tube draining the pylorus was inserted through the abdominal wall for collection of gastric secretion. […] After equilibration of basal secretion an hypersecretion was induced by infusion of histamine 35 mcg/kg/min, through the femoral vein. […] Mean gastric output was determined for a 3 hours test period following drug administration. The last 30 minutes interval prior to dosing was used as a control. The dose-response relationship was established using the maximum inhibition obtained at each individual dose.

[3] = tested on: gastric hemorrhagic lesions induced by absolute ethanol; assay: Protection against gastric lesions induced in rats by necrotizing agents (absolute ethanol); format: in vivo; conditions: po; rat, gavage 30 minutes before 1 ml absolute ethanol; lesion score ≤ 2 considered protected
Protocol: Protection against gastric lesions induced in rats by necrotizing agents
The experiments were done on male rats weighing 260-300 g starved (with free access to water) for 18 hours.
Absolute ethanol was administered by gavage in the volume of 1 ml.
Test substances or the vehicle alone for the controls were given by gavage 30 minutes before the necrotizing agent in a 5% suspension of methylcellulose volume 2.5 ml kg^-1. One hour after administration of the necrotizing agent, the animals were killed and examined for lesions of the glandular portion of the gastric mucosa. The lesions presenting as blackish lesions grouped in patches of varying size, usually parallel to the major axis of the stomach, were scored according to the following arbitrary scale:
1=hyperemic mucosa, or up to 3 small patches;
2=from 4 to 10 small patches;
3=more than 10 small or up to 3 medium-sized patches;
4=from 4 to 6 medium-sized patches;
5=more than 6 medium-sized or up to 3 large patches;
6=from 4 to 6 large patches;
7=from 7 to 10 large patches;
8=more than 10 large patches or extensive necrotic zones.
"Small"0 was defined as up to 2 mm across (max diameter), "medium-sized" as between 2 and 4 mm across and "large" as more than 4 mm across.
Animals with gastric lesion score ≤ 2 were considered protected.
ED50 values were calculated according to Wilcoxon method.
The results are expressed in table 5.

[4] = Toxicity after single administration (acute toxicity, oral); conditions: mouse, in vivo, mice, p.o., lethality 7 days after treatment, Probits method, read-out: Acute Toxicity (DL50 approx. mg/kg p.o.)
Protocol: Toxicity after single administration.
The tests have been carried out in IVA:NMRI (SPF) mice fasted with water ad libitum since 18 hours before treatment.
The compounds were administered by the oral route, at constant volume (10 ml/kg) in a 0.2% aqueous solution of Tween 80.
On the basis of lethality observed 7 days after the treatment, the approximate LD50 were determined according to the Probits method.

stomach of animals = conditions: animals treated over a long period; cited from earlier work
[5] = free acid output, read-out: ED50 free acid output
[6] = secretion volume, read-out: ED50 volume
[7] = titratable acid output, read-out: ED50 titratable acid output
[8] = read-out: ED50 free acid output
[9] = read-out: ED50 titratable acid output

Row | Compound | Emax [1] [%] | ED50 [1, 5] [µmol/kg] | ED50 [1, 6] [µmol/kg] | ED50 [1, 7] [µmol/kg] | PR (potency ratio in comparison with Omeprazole) [1] | ED50 [2, 8] [µmol/kg] | ED50 [2, 9] [µmol/kg] | α (intrinsic activity) [2] | PR = potency ratio [2] | ED50 [3] [mg/kg] | LD50 at 168 h [4] [mg/kg] | carcinomas at the bottom of the stomach (stomach of animals)
1 | CN/C(=N/CCSCc1nc[nH]c1C)NC#N [Cimetidine, reference compound] | 100 | 24.1 | 47.3 | 23.9 | 11,5 | 11.8 | 11.1 | 1 | 5.1 |  |  | 
2 | [O-][S+](Cc1ccc2ccccc2n1)c1nc2cccnc2[nH]1 (centres unmarked) [LI, 2-(2'-quinolylmethylsulfinyl)imidazo-[4,5-b]-pyridine] | 100 | 4.8 | 10.3 | 5.6 | 2,5 |  |  |  |  | 20 | ~750 | 
3 | COc1ccc2[nH]c([S+]([O-])Cc3ncc(C)c(OC)c3C)nc2c1 (centres unmarked) [Omeprazole HCL, reference compound] |  |  |  |  |  |  |  |  |  |  | ~1400 | 
4 | COc1ccc2[nH]c([S+]([O-])Cc3ncc(C)c(OC)c3C)nc2c1 (centres unmarked) [Omeprazole, reference compound] | 100 | 1.8 | 4.2 | 2.3 |  | 2.23 | 2.3 | 1 |  | 73 |  | high incidence of carcinomas
5 | Cn1ccnc1SCc1nc2cc(C(=O)c3ccccc3)ccc2[nH]1 [X, 1-methyl-2-[2'-(5'-benzoyl)-benzimidazolylmethylthio]imidazole. 2H3 PO4] | 70 to 80 | 2.7 | 10 | 2.7 | 1,9 |  |  |  |  |  | ~1400 | 
6 | CN(C)c1ccccc1CSc1nccn1C [XI, 1-methyl-2-[2'-(N,N-dimethylanilyl)methylthio]imidazole. 2HCl] | 100 | 31.9 | 40 | 29.6 | 12,2 | 60.6 | 40.9 | 1 | 22.4 | 20 | ~450 | 
7 | CN(C)c1ccccc1CSc1nccn1-c1cccc(F)c1 [XIX, 1-(3'-fluorophenyl)-2-[2'-(N,N-dimethylanilyl)methylthio]imidazole.2HCl] | 100 | 47.3 | 108 | 64.3 | 26,4 | 32.2 | 26.7 | 1 | 13.0 | 70 | ~1000 | 
8 | COc1ccc(C)nc1CSc1ncnc2[nH]cnc12 [XLIII] | 100 | 83 | 89 | 81.6 | 30,6 |  |  |  |  | 60 |  | 
9 | COc1ccnc(CSc2nccn2-c2cccc(F)c2)c1C [XX, 1-(3'-fluorophenyl)-2-[2'-(3'-methyl-4'-methoxypyridyl)methylthio]imidazole] | 70 to 80 | 65 | 80 | 65 | 25,3 |  |  |  |  | 50 |  | 
10 | Fc1cccc(-n2ccnc2SCc2nc3ccccc3[nH]2)c1 [XXI, 1-(3'-fluorophenyl)-2-[2'-(benzimidazolyl)methylthio]imidazole.2HCl] | 100 | 27 | 38 | 29 | 11,3 |  |  |  |  | 70 | ~900 | 
11 | c1ccc(-n2ccnc2SCc2nc3ccccc3[nH]2)cc1 [XXII, 1-phenyl-2-[2'-(benzimidazolyl)methylthio]imidazole.2HCl] | 80 | 16.8 | 30.5 | 22.3 | 8,4 |  |  |  |  | 63 | ~1000 | 
12 | Fc1ccc(-n2ccnc2SCc2nc3ccccc3[nH]2)cc1 [XXIV] | 70 to 80 | 12.5 | 20.5 | 15.7 | 5,9 |  |  |  |  | 47 | ~2000 | 
13 | COc1ccc(-n2ccnc2SCc2ccccc2N(C)C)cc1 [XXIX, 1-(4'-methoxyphenyl)-2-[2 '-(N,N-dimethylanilyl)methylthio]imidazole.2HCl] | 100 | 86.1 | 144 | 107 | 40,7 |  |  |  |  |  | > 2000 | 
14 | CN(C)c1ccccc1CSc1nccn1-c1ccccc1 [XXVIII, 1-phenyl-2-[2'-(N,N-dimethylanilyl)methylthio]imidazole. 2HCl] | 100 | 40.6 | 55.4 | 44.9 | 17,0 | 31.4 | 19.9 | 1 | 11.3 |  |  | 
15 | CN(C)c1ccccc1CSc1nccn1-c1ccc(F)cc1 [XXX] | 100 | 9.2 | 21.1 | 11.2 | 5,0 |  |  |  |  |  |  | 

From patent US5066652A, “Thiomethyl and sulfinylmethyl derivatives having gastric acid antisectetory activity and pharmaceutical compositions containing them” (Chiesi Farmaceutici S.p.A., priority 1988, dated 1991)
